# From publication PMC4909640 (EBioMedicine, 2016)
# Tested on: enteroendocrine proglucagon-containing cells (L-cells)
# Conditions: perfused mouse proximal small intestine, n = 4; basal to peak; P < 0.001
smiles,measurement,value
[Cl-].[K+] [KCl],increase of GLP-1 secretion during infusion,~ 10 fold
same,increase of oxyntomodulin secretion during infusion,~ 9 fold
